# Data: patent US6140368A, “Naphthols useful in antiviral methods” (The Regents of the University of California, priority 1998, dated 2000)
# Values joined by “and” are separate entries in the source; they are usually repeats but may differ in a detail not shown here. Identical values can stand only once. Counter-ions that a name gives are not always drawn. Like-named read-outs stand apart in the source and are kept apart here.
# Experiments:
# [1] = molecular target: T1, WT reverse transcriptase (Human immunodeficiency virus type 1 BH10, UniProt P03366); test: Reverse transcriptase mutant assay, WT; type: biochemical, HIV-1
# T1 construct: mature chain of Gag-Pol polyprotein
# Method: (§1) The mutants were constructed using BspMI cassette mutagenesis as described previously by Boyer et al. (J Virol., 66:1031-1039 and 7533-7537 (1992)), which is hereby incorporated by reference. The RT assay has also been previously described by Boyer et al. (PNAS USA, 91:4882-4886 (1994)), which is also incorporated by reference. Briefly, RNA dependent DNA polymerase activity is assayed using purified RT protein and a poly(rC).olio(dG) template-primer as the substrate. The protein (1 μg) and substrate are assayed in a total reaction volume of 100 μl containing 0.01 unites poly(rC).olio(dG), 0.02 mM dGTP, 0.002 mCi [α-^32 P]dGTP, and a buffer containing 25 mM tris (pH 8.0), 75 mM KCL, 8.0 mM MgCl2, 2.0 mM dithiothreitol, and 10 mM 3-[(3-cholamidopropyl) diethylammoniol]-1-propane-sulfonate containing acetylated bovine serum albumin at 100 μg/ml. The assay mixture is incubated for 30 minutes, and then stopped by the addition of 50 μl of a 10 mg/ml solution of sheared and denatured salmon sperm DNA followed by 3.0 ml 10 percent trichloroacetic acid. The labeled polymer is collected by suction filtration on Whatman glass GF/C and counted.
# [2] = molecular target: HIV reverse transcriptase (Human immunodeficiency virus type 1 group M subtype B, UniProt P03366); test: Reverse transcriptase scintillation proximity assay (Example 4, Table 2); type: biochemical; conditions: for IC50: read-out: IC50 (RT activity)
# How it was run: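 Purified RT with biotinylated 17mer/50mer RNA-DNA template-primer (39 nm), pH 8.0 Tris with 10 mM MgCl2, 60 mM KCl, dNTPs plus tritiated dTTP; inhibitor preincubated 10 min at 37 °C before enzyme, reaction 3 min. Incorporation read by streptavidin SPA counting.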
# [3] = molecular target: T2, HIV integrase (Human immunodeficiency virus type 1 group M subtype B, UniProt P04585); test: biochemical; conditions: read-out: Inhibition of strand transfer (IC50)
# [4] = molecular target: T3, E138K mutant reverse transcriptase (Human immunodeficiency virus type 1 BH10, UniProt P03366, E737K); test: biochemical
# T3 construct: mature RT cut from Gag-Pol polyprotein
# [5] = molecular target: T4, L100I mutant reverse transcriptase (Human immunodeficiency virus type 1 BH10, UniProt P03366, L699I); test: biochemical
# T4 construct: mature RT cut from Gag-Pol polyprotein
# [6] = molecular target: AZT-21 (M41L/D67N/K70R/T215Y/K219Q) mutant reverse transcriptase (Human immunodeficiency virus type 1 BH10, UniProt P03366, D666N/K669R/K818Q/M640L/T814Y); test: Reverse transcriptase mutant assay, AZT-21; type: biochemical, HIV-1; conditions: for % Activity Remaining: AZT-21 {M41L/D67N/K70R/T215Y/K219Q}
# [7] = molecular target: T5, Y181I mutant reverse transcriptase (Human immunodeficiency virus type 1 BH10, UniProt P03366, Y780I); test: biochemical
# T5 construct: mature chain of Gag-Pol polyprotein
# [8] = molecular target: L74V mutant reverse transcriptase (Human immunodeficiency virus type 1 BH10, UniProt P03366, L673V); test: Reverse transcriptase mutant assay, L74V; type: biochemical, HIV-1
# [9] = molecular target: T2, HIV integrase; test: biochemical; conditions: read-out: Inhibition of 3' processing activity (IC50)
# [10] = system: mutant strains of HIV reverse transcriptase; test: Reverse transcriptase mutant assays, mutants overall; type: biochemical
# Method: as §1
# [11] = molecular target: T6, V106A mutant reverse transcriptase (Human immunodeficiency virus type 1 BH10, UniProt P03366, V705A); test: biochemical; type: biochemical
# T6 construct: mature chain of Gag-Pol polyprotein
# [12] = molecular target: T7, K103N mutant reverse transcriptase (Human immunodeficiency virus type 1 BH10, UniProt P03366, K702N); test: biochemical
# T7 construct: mature RT cut from Gag-Pol polyprotein
# [13] = system: 293T cells; test: Toxicity to 293T cells by growth curves and trypan blue exclusion; conditions: concentrations greater than ten times IC50 against HIV RT
# [14] = system: HIV; test: Cell-based anti-HIV (XTT) assay (National Institutes of Health); conditions: run by the National Institutes of Health
# Source text: The anti-viral evaluations branch of the National Institutes of Health also ran cell-based anti-HIV (XTT) assays and reverse transcriptase (RT) assays on a number of the novel compounds. […] These were: 31, 32, 35, 36, 53, 54, 57, 58, 91, 99, and 103.
# [15] = system: HIV; conditions: cited from earlier work
compound,measurement,setting,value
"O=C(Nc1ccc2c(O)cc(S(=O)(=O)O)cc2c1)Nc1ccc2c(O)cc(S(=O)(=O)O)cc2c1 [Compound 1, carbonyl-J]",remaining activity at 10 µM,[1]; 10 μM,29%
same,remaining activity at 50 µM,[1]; 50 μM,3%
same,IC50,[2],~5000 nM and 5000 nM
same,IC50,[3],2500 nM
same,remaining activity at 10 µM,[4]; 10 μM,29%
same,remaining activity at 50 µM,[4]; 50 μM,4%
same,remaining activity at 10 µM,[5]; 10 μM,11%
same,remaining activity at 50 µM,[5]; 50 μM,1%
same,% Activity Remaining,[6]; 10 μM,33%
same,% Activity Remaining,[6]; 50 μM,4%
same,difference in inhibition with respect to the wild type enzyme,[6]; mutant M41L/D67N/K70R/T215Y/K219Q,virtually no difference in inhibition was found with respect to the wild type enzyme
same,remaining activity at 10 µM,[7]; 10 μM,18%
same,remaining activity at 50 µM,[7]; 50 μM,1%
same,% Activity Remaining,[8]; 10 μM,34%
same,% Activity Remaining,[8]; 50 μM,6%
same,IC50,[9],2500 nM
same,activity against mutant reverse transcriptases,[10],displays activity against non-nucleoside mutants as well as other mutants
same,% Activity Remaining,[11]; 10 μM,33%
same,remaining activity at 50 µM,[11]; 50 μM,4%
same,remaining activity at 10 µM,[12]; 10 μM,32%
same,remaining activity at 50 µM,[12]; 50 μM,3%
O=C(O)/C=C/c1ccc(N=Nc2c(S(=O)(=O)O)cc3cc(NC(=O)Nc4ccc5c(O)c(N=Nc6ccc(/C=C/C(=O)O)cc6)c(S(=O)(=O)O)cc5c4)ccc3c2O)cc1 [Compound 5],toxicity to cells,[13],not toxic even at concentrations greater than ten times its IC50
same,IC50,[2],200 nM
same,IC50,[3],1000 nM
same,conclusion of cell-based anti-HIV (XTT) assays and reverse transcriptase (RT) assays,[14],confirmed active
same,IC50,[9],900 nM
O=C(O)CCC(NC(=O)c1ccc(N=Nc2c(S(=O)(=O)O)cc3cc(NC(=O)Nc4ccc5c(O)c(N=Nc6ccc(C(=O)NC(CCC(=O)O)C(=O)O)cc6)c(S(=O)(=O)O)cc5c4)ccc3c2O)cc1)C(=O)O (stereo not shown) [Compound 57],remaining activity at 10 µM,"[2]; 0.05 h, 10 μM inhibitor, relative to dimethyl sulfoxide = 100%, read-out: % RT activity remaining at 10 μM",0.6%
same,IC50,[3],900 nM
same,conclusion of cell-based anti-HIV (XTT) assays and reverse transcriptase (RT) assays,[14],active or moderately active
same,IC50,[9],600 nM
O=C(Nc1ccc2c(O)c(N=Nc3cccc(C(=O)O)c3)c(S(=O)(=O)O)cc2c1)Nc1ccc2c(O)c(N=Nc3cccc(C(=O)O)c3)c(S(=O)(=O)O)cc2c1 [Compound 58],IC50,[2],800 nM
same,IC50,[3],600 nM
same,conclusion of cell-based anti-HIV (XTT) assays and reverse transcriptase (RT) assays,[14],active or moderately active
same,IC50,[9],200 nM
Cc1ccccc1N=Nc1c(S(=O)(=O)[O-])cc2cc(NC(=O)Nc3ccc4c(O)c(N=Nc5ccc6cc(S(=O)(=O)[O-])ccc6c5)c(S(=O)(=O)[O-])cc4c3)ccc2c1O.[Na+].[Na+].[Na+] [brilliant paper scarlet G],activity in AIDS antiviral screens,[15],confirmed active
"CCOc1cc(N=Nc2cc(Cl)c(S(=O)(=O)O)cc2Cl)c2cc(S(=O)(=O)O)ccc2c1N=Nc1c(S(=O)(=O)O)cc2cc(NC(=O)c3ccc(N)cc3)ccc2c1O [calcomine scarlet 4BNC, 2-naphthalenesulfonic acid, 7-[(4-aminobenzoyyl)amino]-3-[[4-[(2,5-dichloro-4-sulfophenyl)azo]-2-ethoxy-6-sulfo-1-naphthalenyl]azo]-4-hydroxy-,trisodium salt (9CI)]",activity in AIDS antiviral screens,[15],confirmed active
COc1ccccc1N=Nc1c(S(=O)(=O)[O-])cc2cc(NC(=O)Nc3ccc4c(O)c(N=Nc5ccc(S(=O)(=O)[O-])cc5C)c(S(=O)(=O)[O-])cc4c3)ccc2c1O.[Na+].[Na+].[Na+] [direct fast scarlet 4BSW],activity in AIDS antiviral screens,[15],confirmed active
